Molecules are shown by their SMILES. “And” between values parts separate entries of the source, which are not always exact repeats. Equal entries are not always repeated. Toxic doses and inconclusive results are not listed.

The test relates to BDF1 mice, L1210/MTX-resistant leukemia ip, survival T/C. Nature of the test: NCI In Vivo Anticancer Drug Screen. Data for tumor model L1210 Leukemia resistant to Methotrexate; NSC 740 (intraperitoneal) in B6D2F1 (BDF1) mice. To be noted: endpoint: mean survival time, higher = longer survival. The procedure: The antitumor activity of compounds was measured in mice bearing transplantable tumors. Survival or tumor size were measured and the results are expressed as the measurement made in the treated group (T) divided by the measurement made in the vehicle treated control group (C). The tumor model used in this assay is L1210 Leukemia resistant to Methotrexate; NSC 740 (intraperitoneal) in B6D2F1 (BDF1) mice

The mark [1] stands for this setting: dose: 1.0 mg/kg/injection, schedule: Q01DX Z (ip), vehicle: carboxymethylcellulose (CMC).
Setting [2] is: dose: 2.0 mg/kg/injection, schedule: Q01DX Z (ip), vehicle: carboxymethylcellulose (CMC).
Setting [3] is: dose: 4.0 mg/kg/injection, schedule: Q01DX Z (ip), vehicle: carboxymethylcellulose (CMC).
[4] abbreviates: dose: 6.25 mg/kg/injection, schedule: Q01DX Z (ip), vehicle: carboxymethylcellulose (CMC).
The mark [5] stands for this setting: dose: 12.5 mg/kg/injection, schedule: Q01DX Z (ip), vehicle: carboxymethylcellulose (CMC).
Where [6] appears, read: dose: 25.0 mg/kg/injection, schedule: Q01DX Z (ip), vehicle: carboxymethylcellulose (CMC).
Setting [7] is: dose: 18.0 mg/kg/injection, schedule: Q01DX Z (ip), vehicle: carboxymethylcellulose (CMC).
Setting [8] is: dose: 125.0 mg/kg/injection, schedule: Q01DX010 (ip), vehicle: saline.

Turning to `CN(Cc1cnc2nc(N)nc(N)c2n1)c1ccc(C(=O)N[C@@H](CCC(=O)O)C(=O)O)cc1`, the T/C runs as follows: (dose: 0.19 mg/kg/injection, schedule: Q01DX010 (ip), vehicle: other) 95 % of control; (dose: 0.38 mg/kg/injection, schedule: Q01DX010 (ip), vehicle: other) 100 % of control; (dose: 0.75 mg/kg/injection, schedule: Q01DX010 (ip), vehicle: other) 99 % of control; (dose: 0.75 mg/kg/injection, schedule: Q01DX Z (ip), vehicle: alkali diluted with saline) 120 % of control and 92 % of control; (dose: 0.75 mg/kg/injection, schedule: Q01DX Z (ip), vehicle: saline) 95 % of control and 106 % of control; (dose: 1.5 mg/kg/injection, schedule: Q01DX010 (ip), vehicle: other) 100 % of control. The T/C is, setting by setting: (dose: 1.5 mg/kg/injection, schedule: Q01DX Z (ip), vehicle: alkali diluted with saline) 117 % of control and 92 % of control; (dose: 1.5 mg/kg/injection, schedule: Q01DX Z (ip), vehicle: saline) 94 % of control and 100 % of control; (dose: 3.0 mg/kg/injection, schedule: Q01DX Z (ip), vehicle: alkali diluted with saline) 97 % of control; (dose: 3.0 mg/kg/injection, schedule: Q01DX Z (ip), vehicle: saline) 87 % of control and 99 % of control; (dose: 4.0 mg/kg/injection, schedule: Q01DX Z (ip), vehicle: other) 91 % of control and 95 % of control.
`N#[N+]c1cnc([O-])[nH]c1=O`: the T/C by setting is: (dose: 0.16 mg/kg/injection, schedule: Q01DX Z (ip), vehicle: methylcellulose (MC)) 106 % of control; (dose: 0.32 mg/kg/injection, schedule: Q01DX Z (ip), vehicle: methylcellulose (MC)) 103 % of control; (dose: 0.63 mg/kg/injection, schedule: Q01DX Z (ip), vehicle: methylcellulose (MC)) 100 % of control.
Regarding `CN(C)CC(=O)c1ccc(O)c(O)c1`, the T/C (dose: 200.0 mg/kg/injection, schedule: Q01DX010 (ip), vehicle: saline) is 117 % of control; the T/C (dose: 300.0 mg/kg/injection, schedule: Q01DX010 (ip), vehicle: saline) was 109 % of control; the T/C (dose: 450.0 mg/kg/injection, schedule: Q01DX010 (ip), vehicle: saline) was 104 % of control; the T/C (dose: 675.0 mg/kg/injection, schedule: Q01DX010 (ip), vehicle: saline) was 111 % of control.
`Nc1ccc(C(=O)NO)cc1`: the T/C reads like this: (dose: 112.0 mg/kg/injection, schedule: Q01DX015 (ip), vehicle: carboxymethylcellulose (CMC)) 109 % of control; (dose: 225.0 mg/kg/injection, schedule: Q01DX015 (ip), vehicle: carboxymethylcellulose (CMC)) 117 % of control; (dose: 450.0 mg/kg/injection, schedule: Q01DX015 (ip), vehicle: carboxymethylcellulose (CMC)) 100 % of control.
Regarding `O=C(Nc1ccc(C2=NCCCN2)cc1)c1ccc(NC(=O)c2ccc(C3=NCCCN3)cc2)cc1`, the T/C (dose: 2.0 mg/kg/injection, schedule: Q01DX010 (ip), vehicle: other) is 168 % of control; the T/C (dose: 4.0 mg/kg/injection, schedule: Q01DX010 (ip), vehicle: other) was 218 % of control and 257 % of control; the T/C (dose: 8.0 mg/kg/injection, schedule: Q01DX010 (ip), vehicle: other) is 181 % of control and 221 % of control.
For the molecule `O=C(O)CCCc1ccc(N(CCCl)CCCl)cc1`, the T/C is 105 % of control under setting [1]; 97 % of control under setting [2]; 96 % of control under setting [3]; 103 % of control (dose: 5.0 mg/kg/injection, schedule: Q01DX Z (ip), vehicle: carboxymethylcellulose (CMC)); 107 % of control under setting [4]; 95 % of control under setting [5]. The T/C under setting [6] is 90 % of control.
For `CCc1nc(N)nc(N)c1-c1ccc(Cl)cc1`, the T/C was 92 % of control (dose: 9.0 mg/kg/injection, schedule: Q01DX Z (ip), vehicle: carboxymethylcellulose (CMC)); 96 % of control under setting [7]; 95 % of control (dose: 36.0 mg/kg/injection, schedule: Q01DX Z (ip), vehicle: carboxymethylcellulose (CMC)).
Regarding `CCn1cnc2c(=S)nc[nH]c21`, the T/C is, setting by setting: (dose: 12.0 mg/kg/injection, schedule: Q01DX Z (ip), vehicle: carboxymethylcellulose (CMC)) 95 % of control; (dose: 15.6 mg/kg/injection, schedule: Q01DX010 (ip), vehicle: saline) 102 % of control; under setting [7], 98 % of control; under setting [6], 121 % of control; (dose: 31.3 mg/kg/injection, schedule: Q01DX010 (ip), vehicle: saline) 90 % of control; (dose: 37.0 mg/kg/injection, schedule: Q01DX Z (ip), vehicle: carboxymethylcellulose (CMC)) 89 % of control. The T/C (dose: 100.0 mg/kg/injection, schedule: Q01DX Z (ip), vehicle: carboxymethylcellulose (CMC)) is 90 % of control and the T/C under setting [8] is 90 % of control.
As to `N[C@@H](Cc1ccc(N(CCCl)CCCl)cc1)C(=O)O`, the T/C runs as follows: (dose: 0.5 mg/kg/injection, schedule: Q01DX Z (ip), vehicle: carboxymethylcellulose (CMC)) 114 % of control; under setting [1], 100 % of control; under setting [2], 110 % of control; (dose: 3.0 mg/kg/injection, schedule: Q01DX Z (ip), vehicle: carboxymethylcellulose (CMC)) 114 % of control; under setting [3], 107 % of control; (dose: 6.0 mg/kg/injection, schedule: Q01DX Z (ip), vehicle: carboxymethylcellulose (CMC)) 97 % of control. Moreover, the T/C (dose: 8.0 mg/kg/injection, schedule: Q01DX Z (ip), vehicle: carboxymethylcellulose (CMC)) was 86 % of control.
`Cn1cnc([N+](=O)[O-])c1Sc1nc(N)nc2nc[nH]c12`: the T/C is 92 % of control (dose: 1.0 mg/kg/injection, schedule: Q01DX Z (ip), vehicle: methylcellulose (MC)); 96 % of control (dose: 2.0 mg/kg/injection, schedule: Q01DX Z (ip), vehicle: methylcellulose (MC)); 109 % of control (dose: 4.0 mg/kg/injection, schedule: Q01DX Z (ip), vehicle: methylcellulose (MC)).
For `CCC(=O)O[C@H]1CC[C@H]2[C@@H]3CCC4=CC(=O)CC[C@]4(C)[C@H]3CC[C@]12C`, the T/C (dose: 125.0 mg/kg/injection, schedule: Q01DX Z (sc), vehicle: steriod suspending solution) was 100 % of control and 102 % of control; the T/C (dose: 250.0 mg/kg/injection, schedule: Q01DX Z (sc), vehicle: steriod suspending solution) is 102 % of control; the T/C (dose: 1000.0 mg/kg/injection, schedule: Q01DX Z (sc), vehicle: steriod suspending solution) was 86 % of control and 89 % of control.
As for `O=c1cn[nH]c(=O)[nH]1`, the T/C reads like this: under setting [8], 93 % of control; (dose: 250.0 mg/kg/injection, schedule: Q01DX010 (ip), vehicle: saline) 91 % of control and 97 % of control; (dose: 500.0 mg/kg/injection, schedule: Q01DX010 (ip), vehicle: saline) 86 % of control and 90 % of control.
`O=C(CCBr)N1CCN(C(=O)CCBr)CC1`: the T/C is, setting by setting: (dose: 1.6 mg/kg/injection, schedule: Q01DX Z (ip), vehicle: methylcellulose (MC)) 86 % of control; (dose: 3.2 mg/kg/injection, schedule: Q01DX Z (ip), vehicle: methylcellulose (MC)) 90 % of control; (dose: 6.3 mg/kg/injection, schedule: Q01DX Z (ip), vehicle: methylcellulose (MC)) 100 % of control.
Turning to `Cn1c(N)nc2nc[nH]c2c1=S`, the T/C is 108 % of control under setting [4]; 98 % of control (dose: 10.0 mg/kg/injection, schedule: Q01DX010 (ip), vehicle: saline); 90 % of control under setting [5]; 95 % of control (dose: 20.0 mg/kg/injection, schedule: Q01DX010 (ip), vehicle: saline); 104 % of control under setting [6]; 97 % of control (dose: 40.0 mg/kg/injection, schedule: Q01DX010 (ip), vehicle: saline). Moreover, the T/C was 119 % of control (dose: 50.0 mg/kg/injection, schedule: Q01DX Z (ip), vehicle: carboxymethylcellulose (CMC)) and 115 % of control (dose: 80.0 mg/kg/injection, schedule: Q01DX010 (ip), vehicle: saline).
As to `C[C@]12CC[C@H](OC3OC(CO)C(O)C(O)C3O)C[C@H]1CC[C@@H]1[C@@H]2CC[C@]2(C)[C@@H](C3=CCOC3=O)CC[C@]12O` (stereo not given in full), where the note is “dose: 1.0 mg/kg/injection, schedule: Q01DX Z (ip), vehicle: saline”, the T/C was 86 % of control.

The record behind these values is PubChem BioAssay AID284 (DTP/NCI, 2004).
